In ChEMBL document CHEMBL5260848, “Recent advancements in the development of bioactive pyrazoline derivatives” (Eur J Med Chem, 2020):
In brackets after ≈: the same amount, converted by molar mass.

Legend:
[1] = tested on: Mycobacterium tuberculosis; test: Antimycobacterial activity against Mycobacterium tuberculosis; assay type: functional
[2] = tested on: Mycobacterium tuberculosis; test: microbe, parasite or virus in culture; conditions: 120 h
HepG2 [3] = test: Cytotoxicity against human HepG2 cells by SRB assay; assay type: functional
Pseudomonas aeruginosa [4] = test: Antibacterial activity against Pseudomonas aeruginosa assessed as inhibition of bacterial growth; assay type: functional
Escherichia coli [5] = test: Antibacterial activity against Escherichia coli assessed as inhibition of bacterial growth; assay type: functional
Bacillus subtilis [6] = test: microbe, parasite or virus in culture
Staphylococcus aureus [7] = test: microbe, parasite or virus in culture
HepG2 [8] = test: cells; conditions: Homo sapiens
HepG2 [9] = test: Cytotoxicity against human HepG2 cells assessed as growth inhibition; assay type: functional, cell-based
Bacillus subtilis [10] = test: microbe, parasite or virus in culture; conditions: 24 h
Aspergillus niger [11] = test: Antifungal activity against Aspergillus niger incubated for 24 hrs by disc diffusion method; assay type: functional
Staphylococcus aureus [12] = test: microbe, parasite or virus in culture; remark: listed apart in the source
Staphylococcus aureus [13] = test: microbe, parasite or virus in culture; conditions: 24 h
Pseudomonas aeruginosa [14] = test: microbe, parasite or virus in culture; conditions: 24 h
Escherichia coli [15] = test: Antibacterial activity against Escherichia coli incubated for 24 hrs by disc diffusion method; assay type: functional
Candida albicans [16] = test: microbe, parasite or virus in culture; conditions: 24 h
Aspergillus fumigatus = test: Antifungal activity against Aspergillus fumigatus incubated for 24 hrs by disc diffusion method; assay type: functional
Aspergillus flavus = test: Antifungal activity against Aspergillus flavus incubated for 24 hrs by disc diffusion method; assay type: functional
Candida albicans [17] = test: microbe, parasite or virus in culture
Pseudomonas aeruginosa [18] = test: Potency index, ratio of ampicillin MIC to compound MIC for Pseudomonas aeruginosa by agar dilution method; assay type: functional
[19] = tested on: Mycobacterium tuberculosis; test: microbe, parasite or virus in culture; conditions: H37Rv
Acetylcholinesterase = Acetylcholinesterase (Homo sapiens, UniProt P22303)
Chain of Acetylcholinesterase (P22303 whole entry): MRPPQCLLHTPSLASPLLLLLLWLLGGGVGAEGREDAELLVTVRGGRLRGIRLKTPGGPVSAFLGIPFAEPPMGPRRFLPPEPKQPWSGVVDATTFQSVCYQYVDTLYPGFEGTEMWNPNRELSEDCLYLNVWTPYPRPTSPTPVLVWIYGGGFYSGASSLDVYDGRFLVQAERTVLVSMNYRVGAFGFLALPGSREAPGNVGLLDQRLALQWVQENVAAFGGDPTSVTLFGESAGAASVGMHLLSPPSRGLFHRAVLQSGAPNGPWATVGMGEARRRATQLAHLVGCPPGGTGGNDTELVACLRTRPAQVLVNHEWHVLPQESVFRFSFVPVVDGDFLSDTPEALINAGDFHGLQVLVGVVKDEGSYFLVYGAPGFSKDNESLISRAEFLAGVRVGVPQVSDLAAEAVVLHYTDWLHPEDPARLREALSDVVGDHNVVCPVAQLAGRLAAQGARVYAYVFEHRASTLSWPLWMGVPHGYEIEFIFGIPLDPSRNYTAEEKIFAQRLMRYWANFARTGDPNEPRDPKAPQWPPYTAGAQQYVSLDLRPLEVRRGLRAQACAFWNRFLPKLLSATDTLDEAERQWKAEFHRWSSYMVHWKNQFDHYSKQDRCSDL

Aspergillus niger [20] = test: Antifungal activity against Aspergillus niger by agar dilution method; assay type: functional
Candida albicans [21] = test: Antifungal activity against Candida albicans by agar dilution method; assay type: functional
Pseudomonas aeruginosa [22] = test: Antibacterial activity against Pseudomonas aeruginosa by agar dilution method; assay type: functional
Escherichia coli [23] = test: Potency index, ratio of ampicillin MIC to compound MIC for Escherichia coli by agar dilution method; assay type: functional
Escherichia coli [24] = test: Antibacterial activity against Escherichia coli by agar dilution method; assay type: functional
Staphylococcus aureus [25] = test: Antibacterial activity against Staphylococcus aureus by agar dilution method; assay type: functional
Bacillus subtilis [26] = test: Antibacterial activity against Bacillus subtilis by agar dilution method; assay type: functional
[27] = tested on: Staphylococcus epidermidis; test: Antibacterial activity against Staphylococcus epidermidis ATCC 12228 by plate dilution method; assay type: functional
Pseudomonas aeruginosa [28] = test: Antibacterial activity against Pseudomonas aeruginosa ATCC 27853 by plate dilution method; assay type: functional
Enterococcus faecalis = test: Antibacterial activity against Enterococcus faecalis ATCC 29212 by plate dilution method; assay type: functional
Bacillus cereus = test: Antibacterial activity against Bacillus cereus ATCC 9946 by plate dilution method; assay type: functional
Proteus vulgaris = test: Antibacterial activity against Proteus vulgaris ATCC 9920 by plate dilution method; assay type: functional
[29] = tested on: Bordetella bronchiseptica; test: Antibacterial activity against Bordetella bronchiseptica ATCC 4617 by plate dilution method; assay type: functional
Klebsiella pneumoniae = test: Antibacterial activity against Klebsiella pneumoniae ATCC 700603 by plate dilution method; assay type: functional
Staphylococcus aureus [30] = test: Antibacterial activity against Staphylococcus aureus ATCC 25923 by plate dilution method; assay type: functional
Bacillus subtilis [31] = test: Antibacterial activity against Bacillus subtilis ATCC 6633 by plate dilution method; assay type: functional
Escherichia coli [32] = test: Antibacterial activity against Escherichia coli ATCC 25922 by plate dilution method; assay type: functional
HeLa = test: Cytotoxicity against human HeLa cells assessed as reduction in cell viability; assay type: functional, cell-based
HepG2 [33] = test: Cytotoxicity against human HepG2 cells assessed as reduction in cell viability; assay type: functional, cell-based
Plasmodium berghei = test: Antimalarial activity against Plasmodium berghei infected in mouse assessed as suppression percentage at 48.46 umol/kg administered daily relative to control; assay type: functional; conditions: dose 48.46 µmol/kg
DU-145 = test: Cytotoxicity against human DU-145 cells by SRB assay; assay type: functional
Tubulin (Homo sapiens) = Tubulin (Homo sapiens) (UniProt P68371+Q9H4B7+P0DPH7+P68366+Q13509+Q71U36+P04350+Q3ZCM7+P07437+P68363+Q9BQE3+Q6PEY2+Q13885+Q9BVA1+Q9BUF5); test: Inhibition of tubulin polymerization (unknown origin) by fluorescence assay relative to control; assay type: protein-complex assay; conditions: concentration not given here
MCF7 = test: cells; conditions: Homo sapiens

CN[C@@H]1[C@H](O[C@H]2[C@H](O[C@H]3[C@H](O)[C@@H](O)[C@H](N=C(N)N)[C@@H](O)[C@@H]3N=C(N)N)O[C@@H](C)[C@]2(O)C=O)O[C@@H](CO)[C@H](O)[C@H]1O [STREPTOMYCIN]
MIC [1]: 6.25 µg/mL (≈ 10.7 µM)
MIC [2]: 6.25 µg/mL (≈ 10.7 µM)

COc1ccc(C2CC(c3cc(OC)c(OC)c(OC)c3)=NN2C(C)=O)cc1OCc1cn(Cc2ccc(F)cc2)nn1 (stereo unspecified)
GI50 (HepG2 [3]): 6.7 µM

NC[C@H]1O[C@H](O[C@H]2[C@H](O)[C@@H](O[C@H]3O[C@H](CO)[C@@H](O)[C@H](N)[C@H]3O)[C@H](N)C[C@@H]2N)[C@H](N)[C@@H](O)[C@@H]1O [BEKANAMYCIN]
MIC (Pseudomonas aeruginosa [4]): 1.56 µg/mL (≈ 3.23 µM)
MIC (Escherichia coli [5]): 1.56 µg/mL (≈ 3.23 µM)
MIC (Bacillus subtilis [6]): 1.56 µg/mL (≈ 3.23 µM)
MIC (Staphylococcus aureus [7]): 1.56 µg/mL (≈ 3.23 µM)

COc1cc(C2CC(c3ccccc3O)=NN2c2cc3ccccc3s2)cc(OC)c1O (stereo unspecified)
IC50 (HepG2 [8]): 3.57 µM

Clc1ccc(-c2csc(N3N=C(c4cccs4)CC3c3ccc(Cl)cc3Cl)n2)cc1 (stereo unspecified)
IC50 (HepG2 [9]): 2.98 µM

OC(Cn1cncn1)(Cn1cncn1)c1ccc(F)cc1F [FLUCONAZOLE]
MIC (Bacillus subtilis [10]): 30 µg/mL (≈ 98 µM)
MIC (Aspergillus niger [11]): 30 µg/mL (≈ 98 µM)
MIC (Staphylococcus aureus [12]): < 10 µg/mL
MIC (Staphylococcus aureus [13]): 30 µg/mL (≈ 98 µM)
MIC (Pseudomonas aeruginosa [14]): 30 µg/mL (≈ 98 µM)
MIC (Escherichia coli [15]): 30 µg/mL (≈ 98 µM)
MIC (Candida albicans [16]): 30 µg/mL (≈ 98 µM)
MIC (Aspergillus fumigatus): 30 µg/mL (≈ 98 µM)
MIC (Aspergillus flavus): 30 µg/mL (≈ 98 µM)
MIC (Candida albicans [17]): < 10 µg/mL

COc1cccc2cc(C3CC(c4cc(Br)ccc4O)=NN3)c3nnnn3c12 (stereo unspecified)
Ratio (Pseudomonas aeruginosa [18]): 2

O=C1N=C(N2N=C(c3cccs3)CC2c2cc(Cl)ccc2Cl)S/C1=N/Nc1ccc(Cl)cc1 (stereo unspecified)
IC50 (HepG2 [9]): 3.54 µM

NNC(=O)c1ccncc1 [ISONIAZID]
MIC [19]: 6.25 µg/mL (≈ 45.6 µM)

Cc1ccc2cc(C3CC(c4sccc4Cl)=NN3)c(Cl)nc2c1 (stereo unspecified)
IC50 (Acetylcholinesterase): 0.2 µM

COc1cccc2cc(C3CC(c4cc(Br)ccc4O)=NO3)c3nnnn3c12 (stereo unspecified)
MIC (Aspergillus niger [20]): 25 µg/mL (≈ 56.8 µM)
MIC (Candida albicans [21]): 25 µg/mL (≈ 56.8 µM)

Oc1ccc(Br)cc1C1=NNC(c2cc3ccccc3n3nnnc23)C1 (stereo unspecified)
MIC (Pseudomonas aeruginosa [22]): 50 µg/mL (≈ 122 µM)
Ratio (Pseudomonas aeruginosa [18]): 2
Ratio (Escherichia coli [23]): 2
MIC (Escherichia coli [24]): 50 µg/mL (≈ 122 µM)
MIC (Staphylococcus aureus [25]): 25 µg/mL (≈ 61.1 µM)
MIC (Bacillus subtilis [26]): 25 µg/mL (≈ 61.1 µM)

O=c1oc2ccc(F)cc2cc1-c1csc(N2N=C(c3cccc(F)c3)CC2c2cc3ccccc3nc2Cl)n1 (stereo unspecified)
MIC [27]: 50 µg/mL (≈ 87.6 µM)
MIC (Pseudomonas aeruginosa [28]): 50 µg/mL (≈ 87.6 µM)
MIC (Enterococcus faecalis): 50 µg/mL (≈ 87.6 µM)
MIC (Bacillus cereus): 50 µg/mL (≈ 87.6 µM)
MIC (Proteus vulgaris): 50 µg/mL (≈ 87.6 µM)
MIC [29]: 50 µg/mL (≈ 87.6 µM)
MIC (Klebsiella pneumoniae): 50 µg/mL (≈ 87.6 µM)
MIC (Staphylococcus aureus [30]): 50 µg/mL (≈ 87.6 µM)
MIC (Bacillus subtilis [31]): 50 µg/mL (≈ 87.6 µM)
MIC (Escherichia coli [32]): 50 µg/mL (≈ 87.6 µM)

COc1cc(C2CC(c3ccc(F)cc3)=NN2C(N)=S)cc(OC)c1OC (stereo unspecified)
IC50 (HeLa): 7.63 µM
IC50 (HepG2 [33]): 6.78 µM

Cc1ccc(-c2nn(-c3ccccc3)cc2C2CC(c3cccs3)=NN2)cc1 (stereo unspecified)
Activity (Plasmodium berghei): 63.4%

COc1ccc(/C=C/C(=O)c2cc(OC)c(OC)c(OC)c2)cc1OCc1cn(Cc2ccc(F)cc2)nn1
GI50 (DU-145): 1.3 µM
inhibition (Tubulin (Homo sapiens)): 51%

CC(=O)N1N=C(c2nnn(-c3ccc(-n4nnc(C5=NN(C(C)=O)C(c6ccccc6)C5)c4C)cc3)c2C)CC1c1ccccc1 (stereo unspecified)
IC50 (HepG2 [8]): 57.1 µg/mL

CNC(=S)N1N=C(c2nnn(-c3ccc(-n4nnc(C5=NN(C(=S)NC)C(c6ccccc6)C5)c4C)cc3)c2C)CC1c1ccccc1 (stereo unspecified)
IC50 (MCF7): 32.3 µg/mL (≈ 47.8 µM)

O=c1oc2ccc(F)cc2cc1-c1csc(N2N=C(c3ccccc3F)CC2c2cc3ccccc3nc2Cl)n1 (stereo unspecified)
MIC [27]: 50 µg/mL (≈ 87.6 µM)
MIC (Pseudomonas aeruginosa [28]): 50 µg/mL (≈ 87.6 µM)
MIC (Enterococcus faecalis): 50 µg/mL (≈ 87.6 µM)
MIC (Bacillus cereus): 50 µg/mL (≈ 87.6 µM)
MIC (Proteus vulgaris): 50 µg/mL (≈ 87.6 µM)
MIC [29]: 50 µg/mL (≈ 87.6 µM)
MIC (Klebsiella pneumoniae): 50 µg/mL (≈ 87.6 µM)
MIC (Staphylococcus aureus [30]): 50 µg/mL (≈ 87.6 µM)
MIC (Bacillus subtilis [31]): 50 µg/mL (≈ 87.6 µM)
MIC (Escherichia coli [32]): 50 µg/mL (≈ 87.6 µM)

COc1cc(C2CC(c3ccc(Cl)cc3)=NN2C(N)=S)cc(OC)c1OC (stereo unspecified)
IC50 (HeLa): 9.37 µM
IC50 (HepG2 [33]): 16 µM

COc1ccc2c(c1)C1=NN(CCCN(C)C)C3=CC=C([N+](=O)[O-])C(N2)C31 (stereo unspecified)
MIC [1]: 3.12 µg/mL (≈ 8.45 µM)
MIC [2]: 3.12 µg/mL (≈ 8.46 µM)

CC1(C)S[C@@H]2[C@H](NC(=O)Cc3ccccc3)C(=O)N2[C@H]1C(=O)O [PENICILLIN G]
MIC (Pseudomonas aeruginosa [4]): 3.12 µg/mL (≈ 9.35 µM)
MIC (Escherichia coli [5]): 3.12 µg/mL (≈ 9.35 µM)
MIC (Bacillus subtilis [6]): 0.39 µg/mL (≈ 1.17 µM)
MIC (Staphylococcus aureus [7]): 0.39 µg/mL (≈ 1.17 µM)
